US20180200257A1, “METHODS FOR THE TREATMENT OF INFLAMMATORY DISORDERS” (Galapagos NV, priority 2015, published 2018)

Test system: subjects with moderately to severely active RA who have an inadequate response to methotrexate (MTX)
Test: Study 1 (add-on to MTX) - ACR responses (ACR20/50/70)
Assay type: in vivo, human
Text: The terms “ACR20”, “ACR50” and “ACR70” as used herein are scores which indicate how much a patient's rheumatoid arthritis has improved according to criteria set out by the American College of Rheumatology (ACR). The ACR score represents a percentage. An ACR20 score means that a person's RA has improved by 20%, an ACR50 score means it has improved by 50%, and an ACR70 score means it has improved by 70%. Specifically, to qualify for an ACR20 score, a person with RA must have at least 20% fewer tender joints and at least 20% fewer swollen joints. In addition the patient must show a 20% improvement in at least three of the following five areas: the person's overall (global) assessment of his or her own RA, the physician's global assessment of the person's RA, the person's assessment of his or her own pain, the person's assessment of his or her own physical functioning, and the results of an erythrocyte sedimentation rate or C-reactive protein (CRP) blood test (both of which test for inflammation). ACR50 and ACR70 scores use the same criteria but require 50% and 70% improvement, respectively, (Felson et al., 1993). In the data presented herein the CRP blood test is used.
Double-blind, placebo-controlled add on study in subjects with moderately to severely active RA who have an inadequate response to methotrexate (MTX) (oral or parenteral).
595 subjects randomized to one of 6 dose regimens of Compound 1 (dosed as [Compound 1:HCl:3H2O]) (3 dose levels administered either once or twice daily) or placebo on top of each subject's stable dose of MTX.
Compound 1 (dosed as [Compound 1:HCl:3H2O]) is dosed for twelve weeks once daily (q.d.) (50 mg, 100 mg or 200 mg) or twice daily (b.i.d.) (25 mg, 50 mg or 100 mg); or placebo.
At Week 12, the subjects on placebo who have not achieved 20% improvement in swollen joint count (SJC66) and tender joint count (TJC68) are re-randomized automatically to receive Compound 1 (dosed as a [Compound 1:HCl:3H2O]) either at 100 mg q.d. or 50 mg b.i.d. doses in a blinded fashion; subjects on 50 mg q.d. who have not achieved 20% improvement in SJC66 and TJC68 will be assigned to 100 mg q.d. and subjects on 25 mg b.i.d. that have not achieved a 20% improvement in SJC66 and TJC68 will be assigned to 50 mg b.i.d. Subjects who switch treatment at week 12 are handled as if they discontinued at week 12 for the purpose of statistical analysis, whereas subjects in the other groups will maintain their randomized treatment until Week 24.
The American College of Rheumatology (ACR) composite score, which evaluates clinical improvement relative to an initial assessment, is a commonly accepted efficacy end point for clinical trials in patients with rheumatoid arthritis. The ACR score correspond to a percentage improvement in pre-set parameters, and therefore measures the evolution of the disease in a patient. For example, ACR20 denotes at least 20% improvement in tender and swollen joint counts and in three of the following end points: global assessment by the patient, global assessment by the doctor, C reactive protein (CRP), patient's pain Visual Analogue Scale and Health Assessment Questionnaire Score. The number of swollen joints, ESR and CRP correlate with radiographic progression of joint damage, whereas tender joint counts, as well as global assessments by doctors and patients, and patients' reports of pain, are sensitive to change in clinical outcomes. Physical function, as assessed by the Health Assessment Questionnaire Score, is a potent predictor of the risk of disability in rheumatoid arthritis (Felson and American College of Rheumatology Committee to Reevaluate Improvement Criteria, 2007; Felson et al., 1993).
In particular, the list of parameters used to assess ACR score can be found in the Table XCVI below and the results of the ACR responses at week 12 via either NRI or LOCF are shown in the tables below. The Hommel-corrected p-value for the pairwise comparisons of each group with placebo is shown. […]

[1] = 100 mg q.d., week 12, 12 weeks results
[2] = 100 mg q.d., week 12, 24 weeks results
[3] = 100 mg q.d., week 16, 24 weeks results
[4] = 100 mg q.d., week 20, 24 weeks results
[5] = 100 mg q.d., week 24, 24 weeks results
[6] = 100 mg q.d., at week 1, 12 weeks results
[7] = 100 mg q.d., at week 1, 24 weeks results
[8] = 100 mg q.d., week 8, 12 weeks results
[9] = 200 mg q.d., week 2, 12 weeks results
[10] = 200 mg q.d., week 2, 24 weeks results
[11] = 200 mg q.d., week 4, 12 weeks results
[12] = 200 mg q.d., week 4, 24 weeks results
[13] = 200 mg q.d., week 8, 24 weeks results
[14] = 200 mg q.d., week 12, 12 weeks results
[15] = 200 mg q.d., week 12, 24 weeks results
[16] = 200 mg q.d., week 16, 24 weeks results
[17] = 200 mg q.d., week 20, 24 weeks results
[18] = 200 mg q.d., week 24, 24 weeks results
[19] = 200 mg q.d., at week 1, 12 weeks results
[20] = 200 mg q.d., at week 1, 24 weeks results
[21] = 200 mg q.d., week 8, 12 weeks results

Structure (SMILES): O=C(Nc1nc2cccc(-c3ccc(CN4CCS(=O)(=O)CC4)cc3)n2n1)C1CC1 [Compound 1, cyclopropanecarboxylic acid {5-[4-(1,1-dioxo-thiomorpholin-4-ylmethyl)-phenyl]-[1,2,4]triazolo[1,5-a]pyridin-2-yl}-amide]
- ACR70 (LOCF) [1]: 22.4%
- ACR70 (NRI) [1]: 20.0%
- ACR20 (LOCF) [2]: 67.1%
- ACR20 (NRI) [2]: 62.4%
- ACR50 (LOCF) [2]: 41.2%
- ACR50 (NRI) [2]: 38.8%
- ACR70 (LOCF) [2]: 22.4%
- ACR70 (NRI) [2]: 20.0%
- ACR20 (LOCF) [3]: 69.4%
- ACR20 (NRI) [3]: 64.7%
- ACR50 (LOCF) [3]: 55.3%
- ACR70 (LOCF) [3]: 27.1%
- ACR20 (LOCF) [4]: 76.5%
- ACR20 (NRI) [4]: 69.4%
- ACR50 (LOCF) [4]: 50.6%
- ACR70 (LOCF) [4]: 32.9%
- ACR20 (LOCF) [5]: 72.9%
- ACR20 (NRI) [5]: 60.0%
- ACR50 (LOCF) [5]: 54.1%
- ACR70 (LOCF) [5]: 37.6%
- ACR20 (LOCF) [6]: 32.9%
- ACR20 (NRI) [6]: 34.1%
- ACR50 (LOCF) [6]: 5.9%
- ACR50 (NRI) [6]: 5.9%
- ACR70 (LOCF) [6]: 0.0%
- ACR70 (NRI) [6]: 0.0%
- ACR20 (LOCF) [7]: 34.1%
- ACR20 (NRI) [7]: 34.1%
- ACR50 (LOCF) [7]: 5.9%
- ACR50 (NRI) [7]: 5.9%
- ACR70 (LOCF) [7]: 0.0%
- ACR70 (NRI) [7]: 0.00%
- ACR20 (LOCF) [8]: 63.5%
- ACR20 (NRI) [8]: 63.5%
- ACR50 (LOCF) [8]: 35.3%
- ACR50 (NRI) [8]: 34.1%
- ACR70 (LOCF) [8]: 23.5%
- ACR70 (NRI) [8]: 22.4%
- ACR20 (LOCF) [9]: 48.8%
- ACR20 (NRI) [9]: 48.8%
- ACR50 (LOCF) [9]: 11.6%
- ACR50 (NRI) [9]: 11.6%
- ACR70 (LOCF) [9]: 5.8%
- ACR70 (NRI) [9]: 5.8%
- ACR20 (LOCF) [10]: 48.8%
- ACR20 (NRI) [10]: 48.8%
- ACR50 (LOCF) [10]: 11.6%
- ACR50 (NRI) [10]: 11.6%
- ACR70 (LOCF) [10]: 5.8%
- ACR70 (NRI) [10]: 5.8%
- ACR20 (LOCF) [11]: 55.8%
- ACR20 (NRI) [11]: 55.8%
- ACR50 (LOCF) [11]: 16.3%
- ACR50 (NRI) [11]: 17.4%
- ACR70 (LOCF) [11]: 4.7%
- ACR70 (NRI) [11]: 4.7%
- ACR20 (LOCF) [12]: 55.8%
- ACR20 (NRI) [12]: 55.8%
- ACR50 (LOCF) [12]: 17.4%
- ACR50 (NRI) [12]: 17.4%
- ACR70 (LOCF) [12]: 4.7%
- ACR70 (NRI) [12]: 4.7%
- ACR20 (LOCF) [13]: 69.8%
- ACR20 (NRI) [13]: 69.8%
- ACR50 (LOCF) [13]: 34.9%
- ACR50 (NRI) [13]: 34.9%
- ACR70 (LOCF) [13]: 18.6%
- ACR70 (NRI) [13]: 18.6%
- ACR20 (LOCF) [14]: 70.9%
- ACR20 (NRI) [14]: 68.6%
- ACR50 (LOCF) [14]: 44.2%
- ACR50 (NRI) [14]: 43.0%
- ACR70 (LOCF) [14]: 24.4%
- ACR70 (NRI) [14]: 24.4%
- ACR20 (LOCF) [15]: 70.9%
- ACR20 (NRI) [15]: 69.8%
- ACR50 (LOCF) [15]: 44.2%
- ACR50 (NRI) [15]: 43.0%
- ACR70 (LOCF) [15]: 24.4%
- ACR70 (NRI) [15]: 24.4%
- ACR20 (LOCF) [16]: 74.4%
- ACR20 (NRI) [16]: 73.3%
- ACR50 (LOCF) [16]: 50.0%
- ACR70 (LOCF) [16]: 26.7%
- ACR20 (LOCF) [17]: 76.7%
- ACR20 (NRI) [17]: 73.3%
- ACR50 (LOCF) [17]: 54.7%
- ACR70 (LOCF) [17]: 24.4%
- ACR20 (LOCF) [18]: 77.9%
- ACR20 (NRI) [18]: 73.3%
- ACR50 (LOCF) [18]: 54.7%
- ACR70 (LOCF) [18]: 31.4%
- ACR20 (LOCF) [19]: 25.6%
- ACR20 (NRI) [19]: 27.9%
- ACR50 (LOCF) [19]: 4.7%
- ACR50 (NRI) [19]: 4.7%
- ACR70 (LOCF) [19]: 1.2%
- ACR70 (NRI) [19]: 1.2%
- ACR20 (LOCF) [20]: 27.9%
- ACR20 (NRI) [20]: 27.9%
- ACR50 (LOCF) [20]: 4.7%
- ACR50 (NRI) [20]: 4.7%
- ACR70 (LOCF) [20]: 1.2%
- ACR70 (NRI) [20]: 1.2%
- ACR20 (LOCF) [21]: 68.6%
- ACR20 (NRI) [21]: 68.6%
- ACR50 (LOCF) [21]: 33.7%
- ACR50 (NRI) [21]: 33.7%
- ACR70 (LOCF) [21]: 18.6%
